According to PMC4506051, “Pharmacokinetic Profiles of Active Ingredients and Its Metabolites Derived from Rikkunshito, a Ghrelin Enhancer, in Healthy Japanese Volunteers: A Cross-Over, Randomized Study” (PLoS ONE, 2015):
Like-named read-outs stand apart in the source and are kept apart here.

How the values were obtained:
[1] = Exploratory trial: plasma concentration of rikkunshito ingredients after single oral rikkunshito 7.5 g; format: in vivo; settings: for concentration at 0.5 h: 0.5 h after single oral rikkunshito 7.5 g, read-out: Plasma concentration, 0.5 h; for concentration at 1 h: 1 h after single oral rikkunshito 7.5 g; for concentration at 2 h: 2 h after single oral rikkunshito 7.5 g, read-out: Plasma concentration, 2 h; for concentration at 4 h: 4 h after single oral rikkunshito 7.5 g, read-out: Plasma concentration, 4 h; for concentration at 8 h: 8 h after single oral rikkunshito 7.5 g, read-out: Plasma concentration, 8 h
Summary of the method: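 Healthy volunteers took a single oral rikkunshito dose of 7.5 g. Heparinized forearm blood was drawn at 0, 0.5, 1, 2, 4 and 8 h, with urine pooled pre-dose, 0–4 h and 4–8 h. Analytes were quantified in plasma by LC–MS/MS with internal standards, after solid-phase extraction and, where applied, 2 h β-glucuronidase treatment at 37°C.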

[2] = Formation of ingredients derived from rikkunshito in formulation, blood, and urine (S11 Table summary); settings: after rikkunshito administration, per ingredient in the formulation; for Formation of ingredients: form found in Urine: BQL = below the quantification limit
ghrelin receptor (GHS-R) = settings: cited from earlier work
[3] = Exploratory trial: amount of rikkunshito ingredients in urine; format: in vivo, human; settings: mean ± S.D., n = 4
Summary of the method: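 Subjects took single oral 7.5 g rikkunshito; urine collected pre-dose and 0–4 h and 4–8 h post-dose, stored at −80 °C or lower. Synephrine quantified by LC–MS/MS after plate cleanup with erythromycin IS; other ingredients after β-glucuronidase (2 h, 37 °C) and HLB solid-phase extraction.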

[4] = test system: cisplatin-induced anorexia model; settings: oral administration; cisplatin-induced anorexia model; cited from earlier work
ghrelin secretion = settings: cited from earlier work
5-HT2BR = test system: 5-HT2BR; parameters: method as in PMID 18439428; settings: cited from earlier work
[5] = human, in vivo, mean ± S.D., n = 4
[6] = human, plasma, mean ± S.D., n = 4

With `CC1(C)[C@@H](O)CC[C@]2(C)[C@H]3C(=O)C=C4[C@@H]5C[C@@](C)(C(=O)O)CC[C@]5(C)CC[C@@]4(C)[C@]3(C)CC[C@@H]12` [18β-Glycyrrhetinic acid] the Cmax ([1]; human, in vivo) was 58.2 ng/mL.

`C/C=C/C#CC#C/C=C/c1ccco1` [Atractylodin] gave a concentration at 0 h ([1]; human, in vivo, 0 h (preadministration), single oral rikkunshito 7.5 g, mean ± S.D., n = 4, read-out: Plasma concentration, 0 h) of 0.328 ± 0.655 ng/mL, a concentration at 0.5 h [1, 5] of 1.19 ± 0.913 ng/mL and a concentration at 1 h [1, 5] of 1.38 ± 1.15 ng/mL. The concentration at 2 h [1, 5] was 0.863 ± 1.01 ng/mL, the concentration at 4 h [1, 5] was 1.14 ± 0.899 ng/mL and the concentration at 8 h [1, 5] was 0.295 ± 0.59 ng/mL. For the same compound, the Cmax ([1]; human, in vivo, rikkunshito 7.5 g, four subjects, highest mean concentration over 0–8 h, read-out: C max in plasma (exploratory trial)) was 1.38 ng/mL, the “Formation of ingredients: form found in Urine” value [2] was “Atractylodin” and the “Known pharmacology activities: ghrelin signal” value (ghrelin receptor (GHS-R)) was “Ghrelin signal enhancement effect [1]”. For the same compound, the “Amount in urine, 0–4 h” value ([3]; 0–4 h after single oral rikkunshito 7.5 g) was 75.8 ± 152 ng, the “Amount in urine, 4–8 h” value ([3]; 4–8 h after single oral rikkunshito 7.5 g) was “BQL” and the “Amount in urine, Pre” value ([3]; preadministration (between dinner and bedtime)) was “BQL”.

For `COc1ccc(-c2oc3c(OC)c(OC)c(OC)c(OC)c3c(=O)c2OC)cc1OC` [Heptamethoxyflavone, 3,3′,4′,5,6,7,8-heptamethoxyflavone], the “Acylated ghrelin level in blood” value [4] is given as “suppressed the decrease of the acylated ghrelin level in blood in a concentration-dependent manner”, the “Known pharmacology activities: ghrelin secretion” value (ghrelin secretion) is given as “Ghrelin secretion promoting activity [14, 15]” and the “Plasma concentration, 0 h” value ([1]; 0 h (preadministration), single oral rikkunshito 7.5 g, mean ± S.D., n = 4) is given as “BQL”. For the same compound, the concentration at 0.5 h [1, 6] was 0.171 ± 0.18 ng/mL, the concentration at 1 h [1, 6] was 0.253 ± 0.301 ng/mL and the concentration at 2 h [1, 6] was 0.157 ± 0.187 ng/mL. The concentration at 4 h [1, 6] was 0.0569 ± 0.0821 ng/mL, the concentration at 8 h [1, 6] was 0.00613 ± 0.0123 ng/mL and the “Formation of ingredients: form found in Blood” value [2] was “Heptamethoxyflavone”. For the same compound, the “Formation of ingredients: form found in Urine” value [2] was “BQL” and the 5-HT2BR inhibitory/antagonistic activity (5-HT2BR) was “most potent 5-HT2BR antagonistic activity among all rikkunshito ingredients”.
